What all share (assay): relative viability (nuclei count vs DMSO), 5 days (fraction); higher = more cells survive
The subject of test [1] is CAL-12T. The method in brief:
(§1)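 Cells from lung cancer lines were seeded into 1536-well plates and, one day later, dosed by pin tool. Treatments were either a single drug or a fixed dose of an anchor drug with five library-drug doses (not always all listed) in √10 steps. After 5 days, nuclei were stained in a one-step fixation (final 0.05% Triton X-100, 1% formaldehyde, 1 ug/ml Hoechst) and counted on 4× images, and relative viability is the treated-to-vehicle nuclei ratio, as the median of duplicate plates.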

In test [2] the test system is LK-2. The gist of the method: as §1
Test [3] concerns NCI-H1623. The method in brief:
as §1

For test [4], the system named is NCI-H1650. The method in brief:
as §1

The test system of test [5] is NCI-H522. The gist of the method: as §1

For 4 compounds, relative viability results are on record in the supplement of paper PMC10307832.

`O=C(O)c1ccc(-c2c[nH]c3ncc(-c4ccccc4)cc23)cc1C1CCCC1` + CCNC(=O)c1noc(-c2cc(C(C)C)c(O)cc2O)c1-c1ccc(CN2CCOCC2)cc1 [Luminespib] (partner 0.01 µM): the relative viability worked out at 0.57 in test [1] (first compound 0.04 µM); 0.354 in test [1] (first compound 0.1265 µM); 0.519 in test [1] (first compound 0.4 µM); 0.268 in test [1] (first compound 1.265 µM); 0.157 in test [2] (first compound 0.04 µM); 0.187 in test [2] (first compound 0.1265 µM). For the same compound, the relative viability in test [2] (first compound 0.4 µM) was 0.161; in test [2] (first compound 1.265 µM), 0.168; in test [3] (first compound 0.04 µM), 0.445; in test [3] (first compound 0.1265 µM), 0.471; in test [3] (first compound 0.4 µM), 0.512; in test [3] (first compound 1.265 µM) it was 0.496. In addition, the relative viability in test [4] (first compound 0.04 µM) came out at 0.194; in test [4] (first compound 0.1265 µM), 0.17; in test [4] (first compound 0.4 µM), 0.196; in test [4] (first compound 1.265 µM), 0.197; in test [5] (first compound 0.04 µM), 1.37; in test [5] (first compound 0.1265 µM) it was 1.19. Besides, the figures for the relative viability in test [5] (first compound 0.4 µM) and in test [5] (first compound 1.265 µM) were 0.998 and 1.03, respectively.

For the compound `O=C(O)c1ccc(-c2c[nH]c3ncc(-c4ccccc4)cc23)cc1C1CCCC1` + Cc1nc(Nc2ncc(C(=O)Nc3c(C)cccc3Cl)s2)cc(N2CCN(CCO)CC2)n1 [Dasatinib] (partner 0.075 µM), the relative viability in test [1] (first compound 0.04 µM) worked out at 0.484; in test [1] (first compound 0.1265 µM) it was 0.602; in test [1] (first compound 0.4 µM), 0.481; in test [1] (first compound 1.265 µM), 0.323; in test [2] (first compound 0.04 µM) it was 0.362; in test [2] (first compound 0.1265 µM), 0.282. Further, the relative viability in test [2] (first compound 0.4 µM) was 0.252; in test [2] (first compound 1.265 µM), 0.274; in test [3] (first compound 0.04 µM), 0.537; in test [3] (first compound 0.1265 µM), 0.502; in test [3] (first compound 0.4 µM), 0.535; in test [3] (first compound 1.265 µM), 0.545. The relative viability amounted to 0.312 in test [4] (first compound 0.04 µM); 0.357 in test [4] (first compound 0.1265 µM); 0.37 in test [4] (first compound 0.4 µM); 0.308 in test [4] (first compound 1.265 µM); 0.833 in test [5] (first compound 0.04 µM); 0.887 in test [5] (first compound 0.1265 µM). The results for the relative viability in test [5] (first compound 0.4 µM) and in test [5] (first compound 1.265 µM) were 0.714 and 0.851, respectively.

In the case of `CC1(C)CCC(c2ccc(Cl)cc2)=C(CN2CCN(c3ccc(C(=O)NS(=O)(=O)c4ccc(N[C@H](CCN5CCOCC5)CSc5ccccc5)c(S(=O)(=O)C(F)(F)F)c4)cc3)CC2)C1` [Navitoclax] + CCNC(=O)c1noc(-c2cc(C(C)C)c(O)cc2O)c1-c1ccc(CN2CCOCC2)cc1 [Luminespib] (partner 0.01 µM), the relative viability is 0.308 in test [1] (first compound 0.005 µM); 0.563 in test [1] (first compound 0.01581 µM); 0.708 in test [1] (first compound 0.05 µM); 0.826 in test [1] (first compound 0.1581 µM); 0.251 in test [1] (first compound 0.5 µM); 0.204 in test [2] (first compound 0.005 µM). In addition, the relative viability in test [2] (first compound 0.01581 µM) came out at 0.191; in test [2] (first compound 0.05 µM) it was 0.202; in test [2] (first compound 0.1581 µM), 0.191; in test [2] (first compound 0.5 µM) it was 0.195; in test [3] (first compound 0.005 µM), 0.478; in test [3] (first compound 0.01581 µM), 0.631. The relative viability in test [3] (first compound 0.05 µM) stood at 0.463; in test [3] (first compound 0.1581 µM) it was 0.515; in test [3] (first compound 0.5 µM), 0.471; in test [4] (first compound 0.005 µM), 0.214; in test [4] (first compound 0.01581 µM) it was 0.21; in test [4] (first compound 0.05 µM), 0.167. For the same compound, the relative viability in test [4] (first compound 0.1581 µM) came out at 0.206; in test [4] (first compound 0.5 µM), 0.192; in test [5] (first compound 0.005 µM) it was 1.07; in test [5] (first compound 0.01581 µM), 1.25; in test [5] (first compound 0.05 µM), 1.04; in test [5] (first compound 0.1581 µM), 1.19. In test [5] (first compound 0.5 µM), this compound returned a relative viability of 1.36.

For `Oc1nc(-c2ccc(C(F)(F)F)cc2)nc2c1CSCC2` [XAV939] + CCNC(=O)c1noc(-c2cc(C(C)C)c(O)cc2O)c1-c1ccc(CN2CCOCC2)cc1 [Luminespib] (partner 0.01 µM), the relative viability is 0.54 in test [1] (first compound 0.08 µM); 0.363 in test [1] (first compound 0.253 µM); 0.363 in test [1] (first compound 0.8 µM); 0.3 in test [1] (first compound 2.53 µM); 0.202 in test [2] (first compound 0.08 µM); 0.183 in test [2] (first compound 0.253 µM). Besides, the relative viability in test [2] (first compound 0.8 µM) was 0.192; in test [2] (first compound 2.53 µM) it was 0.167; in test [3] (first compound 0.08 µM), 0.493; in test [3] (first compound 0.253 µM), 0.432; in test [3] (first compound 0.8 µM), 0.415; in test [3] (first compound 2.53 µM) it was 0.357. Besides, the relative viability in test [4] (first compound 0.08 µM) turned out to be 0.196; in test [4] (first compound 0.253 µM), 0.225; in test [4] (first compound 0.8 µM) it was 0.177; in test [4] (first compound 2.53 µM), 0.197; in test [5] (first compound 0.08 µM), 1.45; in test [5] (first compound 0.253 µM), 1.24. Moreover, the relative viability in test [5] (first compound 0.8 µM) was determined as 1.05; in test [5] (first compound 2.53 µM) it was 1.09.
